Measured values published in ChEMBL document CHEMBL3593205, “Total Synthesis of 4,5-Didehydroguadiscine: A Potent Melanogenesis Inhibitor from the Brazilian Medicinal Herb, Hornschuchia obliqua” (J Nat Prod, 2015).

Columns and labels:
[1] = Inhibition of theophylline-stimulated melanogenesis in mouse B16-4A5 cells after 72 hrs by microplate reader analysis; format: functional, cell-based
[2] = Potency index, ratio of arbutin IC50 to compound IC50 for inhibition of theophylline-stimulated melanogenesis in mouse B16-4A5 cells; format: functional
[3] = Cytotoxicity against mouse B16-4A5 cells assessed as cell viability at 3 uM after 72 hrs by MTT assay in presence of theophylline relative to control; format: cell-based; settings: read-out: Activity
[4] = Cytotoxicity against mouse B16-4A5 cells assessed as cell viability at 10 uM after 72 hrs by MTT assay in presence of theophylline relative to control; format: cell-based; settings: read-out: Activity

SMILES: COc1ccc2c(c1)C(C)(C)c1nccc3cc4c(c-2c13)OCO4
- IC50 [1]: 4.7 µM
- Ratio IC50 [2]: 40
- viability at 72 h, 3 µM [3]: 95.7%
- viability at 72 h, 10 µM [4]: 86.7%
